# Activity calls are given as the source filed them. The rule behind the calls is not given here.
# Organism: Cavia porcellus
# Test: Antagonism ([…] blocking activity) of isoprenaline-induced positive inotropic effect in guinea pig left atrium; Inactive
# Format: functional
# Settings: Cardiac atrium
row,SMILES,pA2
1,O[C@H](COCCCc1ccccc1)[C@H]1CCCCN1 (relative stereo),inactive

# Organism: Cavia porcellus
# Test: Selectivity of inhibition at beta-1 versus beta-2 adrenergic receptors, […]
# Settings: not given
row,SMILES,Ratio
1,CN1CCCC[C@@H]1[C@H](O)COc1ccccc1,0.7
2,CC(C)NCC(O)COc1ccccc1 (stereo not drawn),8.1
3,O[C@H](COCCCc1ccccc1)[C@@H]1CCCCN1 (relative stereo),0.1
4,CC(C)NCC(O)COCCCc1ccccc1 (stereo not drawn),0.5
5,Cc1ccc(OCC(O)CNC(C)C)cc1 (stereo not drawn),1.8
6,CC(C)N(C)CC(O)COc1ccccc1 (stereo not drawn),2.2
7,CC(C)NCC(O)COc1ccc2ccccc2c1 (stereo not drawn),0.9
8,Cc1cccc(OCC(O)CNC(C)C)c1 (stereo not drawn),6.5
9,CN1CCCC[C@H]1[C@H](O)COc1ccccc1 (relative stereo),1.4
10,CC(C)NCC(O)COCc1ccccc1 (stereo not drawn),1

# The next lines start with the values.
row,Ratio,SMILES
1,0.03,Cc1cccc(OC[C@@H](O)[C@@H]2CCCCN2)c1 (relative stereo)
2,1.2,Cc1ccc(OC[C@@H](O)[C@H]2CCCCN2)cc1 (relative stereo)
3,1.7,O[C@H](COc1ccccc1)[C@@H]1CCCCN1 (relative stereo)
4,0.4,O[C@H](COc1cccc2ccccc12)[C@@H]1CCCCN1 (relative stereo)
5,0.7,O[C@H](COc1cccc2ccccc12)[C@H]1CCCCN1 (relative stereo)
6,1.8,O[C@H](COc1ccc2ccccc2c1)[C@@H]1CCCCN1 (relative stereo)
7,0.5,Cc1cccc(OC[C@@H](O)[C@H]2CCCCN2)c1 (relative stereo)
8,2.5,O[C@H](COCc1ccccc1)[C@@H]1CCCCN1 (relative stereo)
9,0.8,Cc1ccc(OC[C@@H](O)[C@@H]2CCCCN2)cc1 (relative stereo)
10,0.4,O[C@H](COCc1ccccc1)[C@H]1CCCCN1 (relative stereo)
11,2,O[C@H](COc1ccc2ccccc2c1)[C@H]1CCCCN1 (relative stereo)
12,0.7,O[C@H](COc1ccccc1)[C@H]1CCCCN1 (relative stereo)

# From ChEMBL document CHEMBL1124307, “Synthesis and beta-adrenergic antagonism of 2-(aryloxy)-1-(2-piperidyl)ethanols” (J Med Chem, 1988)
